Entries after “also recorded” stand apart in the source; their conditions may differ.
Assay: Six-month stability study of topical gel formulations including Compound 1.002
Format: physicochemical
Details: 40° C./75% RH
Protocol: Unless otherwise indicated, a HPLC method was used to determine the content of Compound 1.002 and impurities; ASTM D 1544 was used as the standard test method for color of gel formulations; a gas chromatographic method was used to determine the content of oleic acid; and Brookfield viscometer was used to measure viscosity (cP) of gel formulations.
The gel formulation in HPLC glass vials was subjected to stability study at 40° C./75%0 RH for 6 months. A purity of Compound 1.002 on month 0, 1, 3, and 6 month at 40° C./75% RH was determined by HPLC. The detected impurity of Compound 1.002 appears to be the hydrolysis product, as MTPP. Table 21 represents stability data of Compound 1.002 in the topical formulation having […]. […]
The gel formulation in Lablabo Amcor Foil 18 mL containers was subjected to stability study at 40° C./75% RH for 6 months. A purity of Compound 1.002 on month 0, 1, 3, 4, 5, and 6 month at 40° C./75% RH was determined by HPLC. The detected impurity of Compound 1.002 appears to be the hydrolysis product, as MTPP. Table 25 represents stability data of Compound 1.002 in the topical formulation having 10% oleic alcohol and 40% DPG. […]

[1] = Table 20 gel (10% oleic acid, DPG), HPLC glass vials, month 0
[2] = Table 20 gel (10% oleic acid, DPG), HPLC glass vials, month 1
[3] = Table 20 gel (10% oleic acid, DPG), HPLC glass vials, month 3
[4] = Table 20 gel (10% oleic acid, DPG), HPLC glass vials, month 6
[5] = Table 24 gel (10% oleyl alcohol, 40% DPG), Lablabo Amcor Foil 18 mL containers, month 0
[6] = Table 24 gel (10% oleyl alcohol, 40% DPG), Lablabo Amcor Foil 18 mL containers, month 1
[7] = Table 24 gel (10% oleyl alcohol, 40% DPG), Lablabo Amcor Foil 18 mL containers, month 3
[8] = Table 24 gel (10% oleyl alcohol, 40% DPG), Lablabo Amcor Foil 18 mL containers, month 4
[9] = Table 24 gel (10% oleyl alcohol, 40% DPG), Lablabo Amcor Foil 18 mL containers, month 5
[10] = Table 24 gel (10% oleyl alcohol, 40% DPG), Lablabo Amcor Foil 18 mL containers, month 6

CC(=O)Oc1cccc(-c2nc(N3CCOCC3)c3sccc3n2)c1 [Compound 1.002, 3-(4-Morpholinothieno[3,2-d]pyrimidin-2-yl)phenyl Acetate]
Appearance [1]: Clear,; also recorded: no crystals
Compound 1.002 Relative Purity [1]: 100.0%
Compound 1.002 content [1]: 106.6 mg/mL
MTPP (Relative Purity) [1]: 0.0%
Other impurity (Relative Purity) [1]: 0.0%
Viscosity [1]: 11,800 cP
Appearance [2]: Clear,; also recorded: no crystals
Compound 1.002 Relative Purity [2]: 98.4%
Compound 1.002 content [2]: 106.0 mg/mL
MTPP (Relative Purity) [2]: 1.2%
Other impurity (Relative Purity) [2]: 0.4%
Viscosity [2]: 12,600 cP
Appearance [3]: Clear,; also recorded: no crystals
Compound 1.002 Relative Purity [3]: 97.5%
Compound 1.002 content [3]: 107.0 mg/mL
MTPP (Relative Purity) [3]: 2.5%
Other impurity (Relative Purity) [3]: 0.0%
Viscosity [3]: 11,780 cP
Appearance [4]: Clear,; also recorded: no crystals
Compound 1.002 Relative Purity [4]: 95.1%
Compound 1.002 content [4]: 109.1 mg/mL
MTPP (Relative Purity) [4]: 4.9%
Other impurity (Relative Purity) [4]: 0.0%
Viscosity [4]: 12,760 cP
Compound 1.002 Relative Purity [5]: 100%
Compound 1.002 content [5]: 65.9 mg/mL
MTPP (Relative Purity) [5]: 0.0%
Visual Appearance [5]: no crystals
Compound 1.002 Relative Purity [6]: 98.9%
Compound 1.002 content [6]: 66.5 mg/mL
MTPP (Relative Purity) [6]: 1.1%
Visual Appearance [6]: no crystals
Compound 1.002 Relative Purity [7]: 99.0%
Compound 1.002 content [7]: 65.9 mg/mL
MTPP (Relative Purity) [7]: 1.0%
Visual Appearance [7]: no crystals
Compound 1.002 Relative Purity [8]: 97.0%
Compound 1.002 content [8]: 66.5 mg/mL
MTPP (Relative Purity) [8]: 3.0%
Visual Appearance [8]: no crystals
Compound 1.002 Relative Purity [9]: 97.3%
Compound 1.002 content [9]: 67.8 mg/mL
MTPP (Relative Purity) [9]: 2.7%
Visual Appearance [9]: no crystals
Compound 1.002 Relative Purity [10]: 90.0%
Compound 1.002 content [10]: 51.1 mg/mL
MTPP (Relative Purity) [10]: 10.0%
Visual Appearance [10]: no crystals

— patent US12522614B2, “Topical phosphoinositide 3-kinase inhibitors” (VENTHERA, INC., priority 2019, dated 2026)
